Source: patent US11124537B2, “Inhibitors of glucocorticoid receptor” (ORIC Pharmaceuticals, Inc., priority 2015, dated 2021)

Target: GR (Homo sapiens (Human), UniProt P04150)
Assay: In Vitro GR Luciferase Reporter Assay
Type: cell-based
Conditions: CHO-K1-GR-MMTV-Luc reporter cells, antagonist assay, 10 nM Dexamethasone, 18-24 hours
Excerpt: Example 4: In Vitro GR Luciferase Reporter Assay
Cell Line: CHO-K1-GR-MMTV-Luc reporter cells
Culture Media: DMEM (with phenol red)+10% FBS
Assay Media: DMEM (without phenol red)+10% CSS
Culture CHO-K1-GR-MMTV-Luc reporter cells in 15 cm plates in Culture Media at conditions less than 90% confluence.
Prepare 200×DMSO 1:5 serial dilutions of control and test compounds in 96-well non-sterile V bottom plate in DMSO, 8 serial dilutions for each compound.
Prepare 5× Assay Media diluted compound serial dilutions in 96-well non-sterile V bottom plate: Add 97.5 uL/well of Assay Media into 96-well then add 2.5 ul of 200× concentration of compounds and mix well.
Seed cells for Antagonist Assay: […] CHO-K1-GR-MMTV-Luc reporter cells were seeded in a Corning 3707 flat clear bottom 384-well white TC plate in 20 ul of Assay Media containing 12.5 nM Dexamethasone (final concentration=10 nM).
Add compounds: 5 ul of assay media diluted compounds were added to appropriate wells and followed a quick spin (1000 rpm, 10 sec) to bring media and cells to the bottom of plate. The plates were covered with SealMate film to avoid evaporation and placed in 37° C. incubator for approximately 18-24 hours.
Read plates: Equilibrate appropriate amount of Promega OneGlo luciferase reagent to room temperature. Remove the plates from incubator and add 25 uL of OneGlo reagent/well by multiple channel pipette and read the plates with Tecan F500 luminometer within 3 minutes.
The ability of the compounds disclosed herein to inhibit GR activity was quantified and the respective IC50 value was determined. Table 3 provides the cellular IC50 values of various substituted steroidal compounds disclosed herein.

GR, sequence (P04150 whole entry): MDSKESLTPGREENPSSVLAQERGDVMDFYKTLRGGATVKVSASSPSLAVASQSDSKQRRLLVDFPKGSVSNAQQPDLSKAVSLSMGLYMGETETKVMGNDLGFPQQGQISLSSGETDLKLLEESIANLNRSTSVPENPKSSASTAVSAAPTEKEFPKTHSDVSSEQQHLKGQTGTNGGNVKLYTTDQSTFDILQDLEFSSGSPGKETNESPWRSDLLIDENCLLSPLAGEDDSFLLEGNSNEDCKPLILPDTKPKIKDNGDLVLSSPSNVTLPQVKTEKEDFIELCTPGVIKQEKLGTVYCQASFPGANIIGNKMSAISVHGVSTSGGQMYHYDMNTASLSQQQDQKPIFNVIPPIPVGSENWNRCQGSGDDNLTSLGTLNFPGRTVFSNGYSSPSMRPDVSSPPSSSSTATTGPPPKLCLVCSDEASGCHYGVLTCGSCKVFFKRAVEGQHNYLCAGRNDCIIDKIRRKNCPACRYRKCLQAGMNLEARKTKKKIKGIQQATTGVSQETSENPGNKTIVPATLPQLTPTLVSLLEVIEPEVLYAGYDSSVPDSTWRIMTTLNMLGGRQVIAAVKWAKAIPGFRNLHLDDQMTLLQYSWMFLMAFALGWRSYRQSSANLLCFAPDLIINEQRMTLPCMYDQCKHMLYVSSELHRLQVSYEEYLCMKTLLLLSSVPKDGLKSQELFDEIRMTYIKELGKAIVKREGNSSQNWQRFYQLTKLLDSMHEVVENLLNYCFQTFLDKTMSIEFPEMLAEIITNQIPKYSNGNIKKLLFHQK

SMILES	IC50 [nM]
CC(C)(C)C#C[C@]1(O)CC[C@H]2[C@@H]3CCC4=CC(=O)CCC4=C3[C@@H](c3ccc(C4CC4)cc3)C[C@@]21C	≤ 100
CCc1ccc([C@H]2C[C@@]3(C)[C@@H](CC[C@@]3(O)C#CC(C)(C)C)[C@@H]3CCC4=CC(=O)CCC4=C32)cc1	≤ 100
CC(C)N(C)c1ccc([C@H]2C[C@@]3(C)[C@@H](CC[C@@]3(O)C#CC(C)(C)C)[C@@H]3CCC4=CC(=O)CCC4=C32)cc1	≤ 100
CCc1ccc([C@H]2C[C@@]3(C)[C@@H](CC[C@@]3(O)C#Cc3ccccc3)[C@@H]3CCC4=CC(=O)CCC4=C32)cc1	≤ 100
Cc1ccc([C@H]2C[C@@]3(C)[C@@H](CC[C@@]3(O)C#CC(C)(C)C)[C@@H]3CCC4=CC(=O)CCC4=C32)cc1	≤ 100
COc1ccc([C@H]2C[C@@]3(C)[C@@H](CC[C@@]3(O)C#CC(C)(C)C)[C@@H]3CCC4=CC(=O)CCC4=C32)cc1	≤ 100
CC(C)Oc1ccc([C@H]2C[C@@]3(C)[C@@H](CC[C@@]3(O)C#CC(C)(C)C)[C@@H]3CCC4=CC(=O)CCC4=C32)cc1	≤ 100
CC(C)(C)C#C[C@]1(O)CC[C@H]2[C@@H]3CCC4=CC(=O)CCC4=C3[C@@H](c3ccc(NCC4CC4)cc3)C[C@@]21C	≤ 100
CN(CC1CC1)c1ccc([C@H]2C[C@@]3(C)[C@@H](CC[C@@]3(O)C#CC(C)(C)C)[C@@H]3CCC4=CC(=O)CCC4=C32)cc1	> 100
CN(C)c1ccc([C@H]2C[C@@]3(C)[C@@H](CC[C@@]3(O)C#CCO)[C@@H]3CCC4=CC(=O)CCC4=C32)cc1	> 100
CC(C)Oc1cccc([C@H]2C[C@@]3(C)[C@@H](CC[C@@]3(O)C#CC(F)(F)F)[C@@H]3CCC4=CC(=O)CCC4=C32)c1	> 100
COc1ccc([C@H]2C[C@@]3(C)[C@@H](CC[C@@]3(O)C#CC(C)C)[C@@H]3CCC4=CC(=O)CCC4=C32)cc1F	≤ 100
CC(C)C#C[C@]1(O)CC[C@H]2[C@@H]3CCC4=CC(=O)CCC4=C3[C@@H](c3ccc(N(C)C)c(F)c3)C[C@@]21C	≤ 100
Cc1ccc([C@H]2C[C@@]3(C)[C@@H](CC[C@@]3(O)C#CC3CC3)[C@@H]3CCC4=CC(=O)CCC4=C32)cc1F	≤ 100
Cc1ccc([C@H]2C[C@@]3(C)[C@@H](CC[C@@]3(O)C#CC(C)C)[C@@H]3CCC4=CC(=O)CCC4=C32)cc1F	≤ 100
Cc1ccc([C@H]2C[C@@]3(C)[C@@H](CC[C@@]3(O)C#CC(C)(C)C)[C@@H]3CCC4=CC(=O)CCC4=C32)cc1C	≤ 100
Cc1ccc([C@H]2C[C@@]3(C)[C@@H](CC[C@@]3(O)C#CC(C)(C)C)[C@@H]3CCC4=CC(=O)CCC4=C32)cc1F	≤ 100
CN(C)c1cc([C@H]2C[C@@]3(C)[C@@H](CC[C@@]3(O)C#CC(F)(F)F)[C@@H]3CCC4=CC(=O)CCC4=C32)ccc1Cl	> 100
Cc1c(F)cc([C@H]2C[C@@]3(C)[C@@H](CC[C@@]3(O)C#CC3CC3)[C@@H]3CCC4=CC(=O)CCC4=C32)cc1F	≤ 100
COc1cc([C@H]2C[C@@]3(C)[C@@H](CC[C@@]3(O)C#CC(C)(C)C)[C@@H]3CCC4=CC(=O)CCC4=C32)ccc1N(C)C	> 100
Cc1ccc([C@H]2C[C@@]3(C)[C@@H](CC[C@@]3(O)C#CC(F)(F)F)[C@@H]3CCC4=CC(=O)CCC4=C32)cc1F	> 100
CCN(C)c1cc(F)c([C@H]2C[C@@]3(C)[C@@H](CC[C@@]3(O)C#CC3CC3)[C@@H]3CCC4=CC(=O)CCC4=C32)c(F)c1	≤ 100
CN(C)c1cc(F)c([C@H]2C[C@@]3(C)[C@@H](CC[C@@]3(O)C#CC(F)(F)F)[C@@H]3CCC4=CC(=O)CCC4=C32)c(F)c1	≤ 100
CC(C)C#C[C@]1(O)CC[C@H]2[C@@H]3CCC4=CC(=O)CCC4=C3[C@@H](c3c(F)cc(N(C)C)cc3F)C[C@@]21C	≤ 100
CCN(C)c1cc(F)c([C@H]2C[C@@]3(C)[C@@H](CC[C@@]3(O)C#CC(C)C)[C@@H]3CCC4=CC(=O)CCC4=C32)c(F)c1	≤ 100
CCc1cc(F)c([C@H]2C[C@@]3(C)[C@@H](CC[C@@]3(O)C#CC(C)C)[C@@H]3CCC4=CC(=O)CCC4=C32)c(F)c1	≤ 100
CC(C)(C)C#C[C@]1(O)CC[C@H]2[C@@H]3CCC4=CC(=O)CCC4=C3[C@@H](c3cc(F)c(-c4cncnc4)cc3F)C[C@@]21C	≤ 100

SMILES	IC50 [nM]
CN(C)c1cc(F)c([C@H]2C[C@@]3(C)[C@@H](CC[C@@]3(O)C#CC(C)(C)C)[C@@H]3CCC4=CC(=O)CCC4=C32)c(F)c1	≤ 100
CC(C)C#C[C@]1(O)CC[C@H]2[C@@H]3CCC4=CC(=O)CCC4=C3[C@@H](c3cc(F)c(N(C)C)cc3F)C[C@@]21C	≤ 100
CN(C)c1c(F)cc([C@H]2C[C@@]3(C)[C@@H](CC[C@@]3(O)C#CC3CC3)[C@@H]3CCC4=CC(=O)CCC4=C32)cc1F	≤ 100
CN(C)c1ccc([C@H]2C[C@@]3(C)[C@@H](CC[C@@]3(O)C#CC(C)(C)C)[C@@H]3CCC4=CC(=O)CCC4=C32)c(F)c1F	≤ 100
CCN(CC)c1cc(F)c([C@H]2C[C@@]3(C)[C@@H](CC[C@@]3(O)C#CC(C)C)[C@@H]3CCC4=CC(=O)CCC4=C32)c(F)c1	≤ 100
CN(C)c1cc(F)c([C@H]2C[C@@]3(C)[C@@H](CC[C@@]3(O)C#Cc3ccccc3)[C@@H]3CCC4=CC(=O)CCC4=C32)c(F)c1	≤ 100
CN(C)c1cc(F)c([C@H]2C[C@@]3(C)[C@@H](CC[C@@]3(O)C#CC3CC3)[C@@H]3CCC4=CC(=O)CCC4=C32)cc1F	≤ 100
CC(C)C#C[C@]1(O)CC[C@H]2[C@@H]3CCC4=CC(=O)CCC4=C3[C@@H](c3ccc(N(C)C)c(F)c3F)C[C@@]21C	≤ 100
Cc1c(F)cc([C@H]2C[C@@]3(C)[C@@H](CC[C@@]3(O)C#CC(C)C)[C@@H]3CCC4=CC(=O)CCC4=C32)cc1F	≤ 100
CC(C)C#C[C@]1(O)CC[C@H]2[C@@H]3CCC4=CC(=O)CCC4=C3[C@@H](c3c(F)cc(N4CCCC4)cc3F)C[C@@]21C	≤ 100
CN(C)c1c(F)cc([C@H]2C[C@@]3(C)[C@@H](CC[C@@]3(O)C#CC(C)(C)C)[C@@H]3CCC4=CC(=O)CCC4=C32)cc1F	≤ 100
CC(C)(C)C#C[C@]1(O)CC[C@H]2[C@@H]3CCC4=CC(=O)CCC4=C3[C@@H](c3cc(F)c(-c4ccncc4)cc3F)C[C@@]21C	≤ 100
Cc1ccc(-c2cc(F)c([C@H]3C[C@@]4(C)[C@@H](CC[C@@]4(O)C#CC(C)(C)C)[C@@H]4CCC5=CC(=O)CCC5=C43)cc2F)cn1	> 100
Cc1c(F)cc([C@H]2C[C@@]3(C)[C@@H](CC[C@@]3(O)C#CC(F)(F)F)[C@@H]3CCC4=CC(=O)CCC4=C32)cc1F	> 100
Cc1c(F)cc([C@H]2C[C@@]3(C)[C@@H](CC[C@@]3(O)C#Cc3ccccn3)[C@@H]3CCC4=CC(=O)CCC4=C32)cc1F	> 100
CN(C)c1c(F)cc([C@H]2C[C@@]3(C)[C@@H](CC[C@@]3(O)C#CC(F)(F)F)[C@@H]3CCC4=CC(=O)CCC4=C32)cc1F	> 100
Cc1c(F)cc([C@H]2C[C@@]3(C)[C@@H](CC[C@@]3(O)C#Cc3ccc(N(C)C)cc3)[C@@H]3CCC4=CC(=O)CCC4=C32)cc1F	> 100
Cc1c(F)cc([C@H]2C[C@@]3(C)[C@@H](CC[C@@]3(O)C#CC(C)(C)C)[C@@H]3CCC4=CC(=O)CCC4=C32)cc1F	> 100
CN(C)c1ccc([C@H]2C[C@@]3(C)[C@@H](CC[C@@]3(O)C#Cc3ccc(C(C)(C)C)cc3)[C@@H]3CCC4=CC(=O)CCC4=C32)cc1	> 100
CN(C)c1ccc([C@H]2C[C@@]3(C)[C@@H](CC[C@@]3(O)C#Cc3ccc(C#N)cc3)[C@@H]3CCC4=CC(=O)CCC4=C32)cc1	≤ 100
CC(C)N(C)c1ccc([C@H]2C[C@@]3(C)[C@@H](CC[C@@]3(O)C#CC3(C)COC3)[C@@H]3CCC4=CC(=O)CCC4=C32)cc1	≤ 100
COC(C)(C)C#C[C@]1(O)CC[C@H]2[C@@H]3CCC4=CC(=O)CCC4=C3[C@@H](c3ccc(C(C)(C)C)cc3)C[C@@]21C	≤ 100
CC(C)N(C)c1ccc([C@H]2C[C@@]3(C)[C@@H](CC[C@@]3(O)C#Cc3ccc(S(C)(=O)=O)cc3)[C@@H]3CCC4=CC(=O)CCC4=C32)cc1	≤ 100
CC(C)(C)C#C[C@]1(O)CC[C@H]2[C@@H]3CCC4=CC(=O)CCC4=C3[C@@H](c3ccc(N)cc3)C[C@@]21C	> 100
CCN(c1ccc([C@H]2C[C@@]3(C)[C@@H](CC[C@@]3(O)C#CC(C)(C)C)[C@@H]3CCC4=CC(=O)CCC4=C32)cc1)C(C)C	> 100
CC(C)(C)C#C[C@]1(O)CC[C@H]2[C@@H]3CCC4=CC(=O)CCC4=C3[C@@H](c3ccc(C(C)(C)CO)cc3)C[C@@]21C	≤ 100
C[C@H]1CCCN1c1ccc([C@H]2C[C@@]3(C)[C@@H](CC[C@@]3(O)C#CC(C)(C)C)[C@@H]3CCC4=CC(=O)CCC4=C32)cc1	≤ 100
